Assay results published in PMC12933330, “Data-Driven Design of PROTAC Linkers to Improve PROTAC Cell Membrane Permeability” (JACS Au, 2026).

Tests used:
[1] = Caco-2 cell membrane permeability study (transcellular transport, A-to-B); type: in vitro ADME; conditions: human; Caco-2, apical to basal, 10 μM compound, 2 h, 37 °C, 4% BSA in basal compartment; read-out: Ex. value, cell membrane permeability (Papp, AtoB)
Method: (§1) KT-474 (Catalog No. E1655), NX-2127 (Catalog No. E1381), MS4078 (Catalog No. S0072), dBET6 (Catalog No. S8762), and dBET57 (Catalog No. S0137) were purchased from Selleck Chemicals (Houston, TX, USA). […] The Caco-2 cell permeability assay using these PROTACs was outsourced to Axcelead Drug Discovery Partners, Inc. (Kanagawa, Japan). Caco-2 cells (American Type Culture Collection, Manassas, VA, USA) were cultured, and a transcellular transport study was performed. The cells were cultured in Transwell 96-well permeable support (pore size 0.4 μm, 0.11 cm^2 surface area) with a polycarbonate membrane (PSHT004S5, Millipore Corporation, Bedford, MA, USA). The cells were preincubated with bovine serum albumin (BSA)-free Hank’s balanced salt solution (HBSS) in the apical compartment (75 μL) and HBSS containing 4% BSA in the basal compartment (250 μL) for 10 min at 37 °C. Subsequently, transcellular transport was initiated by the addition of BSA-free HBSS to apical compartments containing 10 μM compounds. The assay was terminated by separating each assay plate after 2 h. Aliquots (50 μL) from the basolateral compartment were mixed with acetonitrile/methanol. After centrifugation, the compound concentrations in the supernatant were measured using liquid chromatography-tandem mass spectrometry (LC–MS/MS) and a Kinetex C18 column (2.6 μm, 2.1 × 30 mm). The apparent permeabilities (P app, AtoB) of the receivers were determined. Lucifer yellow was added onto the apical compartment at a concentration of 100 μM. The P app of lucifer yellow in the wells where each test compound was evaluated was reported. The P app value of each compound in the membrane permeability test was calculated from a one-point standard curve (0.1 μM) using the following equation. Papp=C×V/T×A×C0 where C (μM) is the concentration of the test compound on the basal side after incubation (measured value); V (mL) is the volume of the basolateral compartment (0.25 mL); T (s) is the permeation experiment time (7200 s); A (cm^2) is the membrane area (0.11 cm^2); and C0 (μM) is the concentration of test compound (measured value).

[2] = system: Caco-2 cell membranes; parameters: method as in PROTAC-DB 3.0; conditions: Caco-2 A-to-B; as recorded in PROTAC-DB 3.0; ref PROTAC-DB 3.0; cited from earlier work
[3] = system: Caco-2 cells; experiment: Caco-2 cell membrane permeability study (transcellular transport, A-to-B); type: in vitro ADME; conditions: Caco-2, A-to-B
Method: as §1

| Structure (SMILES) | Papp A→B at 2 h, 10 μM [1] | experimental value of the cell membrane permeability [2] | cell membrane permeability, result in words [3] |
| --- | --- | --- | --- |
| NC(=O)c1ncc(N2CCCCC2)nc1Nc1ccc(C2CCN(C[C@H]3CCN(c4ccc5c(c4)C(=O)N(C4CCC(=O)NC4=O)C5=O)C3)CC2)cc1 (stereo partly drawn) [NX-2127] | 0.11 ×10⁻⁶ cm/s | – | – |
| Cc1sc2c(c1C)C(c1ccc(Cl)cc1)=NC(CC(=O)NCc1cn(CCCCNC(=O)COc3ccc(C4CCC(=O)NC4=O)cc3)nn1)c1nnc(C)n1-2 (stereo not drawn) [Compound 2895] | – | 2.14 μcm/s | – |
| Cc1sc2c(c1C)C(c1ccc(Cl)cc1)=NC(CC(=O)NCCCCCCCCNC(=O)COc1cccc3c1C(=O)N(C1CCC(=O)NC1=O)C3=O)c1nnc(C)n1-2 (stereo not drawn) [dBET6] | 0.99 ×10⁻⁶ cm/s | – | relatively high cell membrane permeability |
| Cc1cc(Nc2ncc(Cl)c(Nc3ccccc3S(=O)(=O)C(C)C)n2)c(OC(C)C)cc1C1CCN(CC(=O)NCCNc2cccc3c2C(=O)N(C2CCC(=O)NC2=O)C3=O)CC1 (stereo not drawn) [MS4078] | 0.06 ×10⁻⁶ cm/s | – | – |
| Cn1c(=O)n(C2CCC(=O)NC2=O)c2cccc(C#CCOC3CCN(C[C@H]4CC[C@H](n5cc(NC(=O)c6cnn7ccc(N8C[C@H]9C[C@@H]8CO9)nc67)c(C(F)F)n5)CC4)CC3)c21 (stereo partly drawn) [KT-474] | 1.26 ×10⁻⁶ cm/s | – | relatively high cell membrane permeability |
| Cc1sc2c(c1C)C(c1ccc(Cl)cc1)=NC(CC(=O)NCCNc1cccc3c1C(=O)N(C1CCC(=O)NC1=O)C3=O)c1nnc(C)n1-2 (stereo not drawn) [dBET57] | 0.52 ×10⁻⁶ cm/s | – | relatively high cell membrane permeability |
